According to PMC5578999, “Novel quinolone chalcones targeting colchicine-binding pocket kill multidrug-resistant cancer cells by inhibiting tubulin activity and MRP1 function” (Scientific Reports, 2017):

Tests used:
Assay type in all cases: cell-based
MDR1 = experiment: Rh123 dye efflux assay, KB-C-2 cells; settings: MDR1, KB-C-2 cells; 22 µmol/L of drug; DMSO control 58.0%
Method: Rhodamine123 (Rh123) drug efflux was carried out using a Multidrug-Resistance Direct Dye Efflux Activity Kit (Millipore, Darmstadt, Germany), with some modifications. […] Reading was carried out with a Beckman Coulter FC500 flow cytometer.

MRP1 = biological target: T1, MRP1 (Homo sapiens, UniProt P33527); experiment: Calcein-AM retention assay, HEK293-MRP1 cells; settings: 22 µmol/L, DMSO control 52%
T1 construct: expressed in transfected cells; host or cells: HEK293-MRP1 (gift of Dr. Susan Cole)
T1 sequence (P33527 whole entry): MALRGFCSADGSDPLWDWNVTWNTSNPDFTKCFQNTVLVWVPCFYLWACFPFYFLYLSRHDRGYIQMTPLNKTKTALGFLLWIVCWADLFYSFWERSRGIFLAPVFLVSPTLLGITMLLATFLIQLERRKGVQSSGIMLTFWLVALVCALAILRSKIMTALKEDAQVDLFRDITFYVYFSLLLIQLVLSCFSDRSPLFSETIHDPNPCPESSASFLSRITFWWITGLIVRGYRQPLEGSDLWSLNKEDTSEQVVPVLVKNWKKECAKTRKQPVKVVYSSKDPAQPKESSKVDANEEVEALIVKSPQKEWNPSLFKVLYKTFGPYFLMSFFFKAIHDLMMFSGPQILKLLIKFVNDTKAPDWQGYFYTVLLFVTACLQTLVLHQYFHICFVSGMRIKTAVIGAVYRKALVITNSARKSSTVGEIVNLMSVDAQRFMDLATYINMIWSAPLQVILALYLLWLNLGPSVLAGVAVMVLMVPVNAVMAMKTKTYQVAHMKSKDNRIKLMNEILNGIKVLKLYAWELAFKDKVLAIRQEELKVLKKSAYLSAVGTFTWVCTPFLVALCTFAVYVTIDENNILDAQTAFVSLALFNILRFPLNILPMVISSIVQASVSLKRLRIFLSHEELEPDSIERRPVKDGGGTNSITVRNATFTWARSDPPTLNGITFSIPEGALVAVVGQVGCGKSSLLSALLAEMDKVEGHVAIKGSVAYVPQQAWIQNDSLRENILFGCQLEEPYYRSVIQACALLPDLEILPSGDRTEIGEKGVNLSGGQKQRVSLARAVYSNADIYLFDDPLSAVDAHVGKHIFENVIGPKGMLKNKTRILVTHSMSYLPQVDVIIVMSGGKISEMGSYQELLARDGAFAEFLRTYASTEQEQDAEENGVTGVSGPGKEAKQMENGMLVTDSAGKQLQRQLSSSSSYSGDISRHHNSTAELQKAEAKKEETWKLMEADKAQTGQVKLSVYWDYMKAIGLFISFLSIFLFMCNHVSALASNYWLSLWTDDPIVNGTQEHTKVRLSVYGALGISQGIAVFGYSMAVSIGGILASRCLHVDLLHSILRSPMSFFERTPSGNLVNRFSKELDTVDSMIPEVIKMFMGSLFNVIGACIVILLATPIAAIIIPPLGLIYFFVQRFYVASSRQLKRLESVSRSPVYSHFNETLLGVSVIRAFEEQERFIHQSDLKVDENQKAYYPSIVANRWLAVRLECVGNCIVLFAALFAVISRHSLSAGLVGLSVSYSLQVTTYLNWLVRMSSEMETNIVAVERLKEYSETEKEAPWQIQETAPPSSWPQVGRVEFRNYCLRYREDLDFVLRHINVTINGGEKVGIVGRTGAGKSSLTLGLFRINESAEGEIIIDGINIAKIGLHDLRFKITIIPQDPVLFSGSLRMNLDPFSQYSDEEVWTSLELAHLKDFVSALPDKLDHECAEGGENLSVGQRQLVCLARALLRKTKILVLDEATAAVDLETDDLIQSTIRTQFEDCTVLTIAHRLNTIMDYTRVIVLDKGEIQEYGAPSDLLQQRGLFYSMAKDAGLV

HOP-62 = experiment: NCI-60 SRB screen
SR = experiment: NCI-60 SRB screen
NCI-60 cancer cell lines = experiment: NCI-60 SRB screen, panel means; settings: mean of panel
Source text: Supplementary Table S 3: Antitumor activity of CTR -17 and CTR -20, alone or in combination […]
a Tax: paclitaxel. b mg per kg of bod y wei ght. c unit is mm 3.
Supplementary Figure l egend
10μ M of CTR-20 was used to examine the drug’s efficac y against the NC I-60 cancer cell li nes including: six leukemia cell lines, nine non- small cell lung cancer cell lines, seven color ect al cancer cell lines, six CNS cancer cell lines, nine melanoma cell lines, seven ovari an can cer cell lines, seven ren al can cer cell lines, two prostate cancer cell lines and six breast cancer cell lines. The scr eenin g was car r ied out b y the US National Cancer Institute (NC I) us i n g a sulforhodamine B (SRB) colorimetric assay. […]
out by the NC I using five different doses of CTR -20.

COc1ccc2[nH]c(=O)c(/C=C/C(=O)c3ccccc3OC)cc2c1 [CTR-20, (E)-6-Methoxy-3-(3-(2-methoxyphenyl)-3-oxoprop-1-enyl) quinolin-2(1H)-one]
Rh123 retention (MDR1): 57.9% | calcein-AM retained in the cells (MRP1): 72% | Log10GI50 (HOP-62): -5.91 Molar | Log10LC50 (HOP-62): -4.63 Molar | Log10TGI (HOP-62): -5.27 Molar | TGI (HOP-62): 5.32E-6 Molar | Growth Percent (HOP-62; 1.00E-5 Molar): 8.67% | GI50 (HOP-62; Homo sapiens): 1.24 µM | LC50 (HOP-62; Homo sapiens): 23.7 µM | Percent Growth (HOP-62; Log10 Concentration -4.0): -97% | Percent Growth (HOP-62; Log10 Concentration -5.0): -22% | Percent Growth (HOP-62; Log10 Concentration -6.0): 58% | Percent Growth (HOP-62; Log10 Concentration -7.0): 95% | Percent Growth (HOP-62; Log10 Concentration -8.0): 89% | Log10GI50 (SR): -7.18 Molar | Log10LC50 (SR): > -4.00 Molar | Log10TGI (SR): -4.99 Molar | TGI (SR): 1.03E-5 Molar | Growth Percent (SR; 1.00E-5 Molar): 2.69% | GI50 (SR; Homo sapiens): 0.0656 µM | LC50 (50% lethal concentration) (SR; Homo sapiens): > 100 µM | Percent Growth (SR; Log10 Concentration -4.0): -13% | Percent Growth (SR; Log10 Concentration -6.0): 21% | Percent Growth (SR; Log10 Concentration -7.0): 41% | Percent Growth (SR; Log10 Concentration -8.0): 92% | Mean Growth Percent (NCI-60 cancer cell lines; 1.00E-5 Molar): 13.21% | Log10GI50 _MID (NCI-60 cancer cell lines): -6.21 Molar | Log10LC50 _MID (NCI-60 cancer cell lines): -4.58 Molar | Log10TGI _MID (NCI-60 cancer cell lines): -5.29 Molar
